Test results: ChEMBL document CHEMBL1201862, “PubChem BioAssay data set” (2004)
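Compound exposure: 48 hours, 5 concentrations, 96-well plates. GI50 = concentration required for 50% inhibition of growth.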 Active and inactive are the calls of the source. No stated cut-off is given here; in the data, active = GI50 up to about 1.1 µM and inactive = higher.

Key:
Experiment in all cases: growth of human tumour cells (NCI), 48 h
UACC-257 = tested on: UACC-257
ACHN = tested on: ACHN
HCT-116 = tested on: HCT-116
CCRF-CEM = tested on: CCRF-CEM
OVCAR-8 = tested on: OVCAR-8
LOX IMVI = tested on: LOX IMVI
TK-10 = tested on: TK-10
HT-29 = tested on: HT-29
NCI-H460 = tested on: NCI-H460
NCI-H23 = tested on: NCI-H23
SK-MEL-28 = tested on: SK-MEL-28
SW-620 = tested on: SW-620
MOLT-4 = tested on: MOLT-4
A498 = tested on: A498
OVCAR-3 = tested on: OVCAR-3

Measured: GI50

COC(=O)C(C(=O)C(=O)Nc1ccc([N+](=O)[O-])cc1[N+](=O)[O-])c1nc2ccc(Cl)cc2nc1O (stereo not drawn)
inactive: UACC-257 > 100 µM | ACHN 65 µM | HCT-116 > 100 µM | CCRF-CEM > 100 µM | OVCAR-8 > 100 µM | LOX IMVI > 100 µM | TK-10 > 100 µM | HT-29 > 100 µM | NCI-H460 > 100 µM | NCI-H23 77.8 µM | SK-MEL-28 > 100 µM | SW-620 > 100 µM | MOLT-4 73.1 µM | A498 44.2 µM | OVCAR-3 66.4 µM

[O-][S+]1c2ccccc2N=C(c2cccs2)CC1c1ccccc1O (stereo not drawn)
inactive: UACC-257 > 100 µM | ACHN > 100 µM | CCRF-CEM > 100 µM | OVCAR-8 > 100 µM | LOX IMVI > 100 µM | TK-10 > 100 µM | HT-29 > 100 µM | NCI-H460 > 100 µM | NCI-H23 67.9 µM | SK-MEL-28 > 100 µM | SW-620 > 100 µM | MOLT-4 > 100 µM | A498 25.4 µM | OVCAR-3 > 100 µM

CCOC(=O)C12C(C(=O)OC)=C(C)N(NC(=O)Nc3ccccc3)C1(N)N(NC(=O)Nc1ccccc1)C(C)=C2C(=O)OC (stereo not drawn)
inactive: UACC-257 21.1 µM | ACHN 34.1 µM | HCT-116 25.3 µM | CCRF-CEM 23.7 µM | OVCAR-8 27.7 µM | LOX IMVI 17 µM | TK-10 36.1 µM | HT-29 24.5 µM | NCI-H460 40.3 µM | NCI-H23 37.4 µM | SK-MEL-28 34.1 µM | SW-620 40.6 µM | MOLT-4 17.9 µM | A498 30.1 µM | OVCAR-3 22.9 µM

O=C(NCC(O)CNC(=O)C(F)(F)F)C(F)(F)F
inactive: UACC-257 > 100 µM | HCT-116 > 100 µM | CCRF-CEM > 100 µM | OVCAR-8 > 100 µM | LOX IMVI > 100 µM | TK-10 > 100 µM | HT-29 > 100 µM | NCI-H460 > 100 µM | NCI-H23 > 100 µM | SW-620 > 100 µM | MOLT-4 > 100 µM | A498 > 100 µM | OVCAR-3 > 100 µM

Cc1ccc(-c2cc(=O)c3cc(C)c(C)c(C(=O)O)c3o2)cc1[N+](=O)[O-]
inactive: UACC-257 > 100 µM | ACHN > 100 µM | HCT-116 > 100 µM | CCRF-CEM > 100 µM | OVCAR-8 > 100 µM | LOX IMVI > 100 µM | TK-10 > 100 µM | HT-29 > 100 µM | NCI-H460 > 100 µM | NCI-H23 > 100 µM | SK-MEL-28 > 100 µM | SW-620 > 100 µM | MOLT-4 > 100 µM | OVCAR-3 > 100 µM

O=C(CCN1CCCC1)CC(c1ccccc1)c1c(O)c2ccccc2oc1=O (stereo not drawn)
inactive: UACC-257 > 100 µM | ACHN > 100 µM | HCT-116 > 100 µM | CCRF-CEM > 100 µM | OVCAR-8 > 100 µM | LOX IMVI > 100 µM | TK-10 > 100 µM | HT-29 > 100 µM | NCI-H460 > 100 µM | NCI-H23 > 100 µM | SK-MEL-28 > 100 µM | SW-620 > 100 µM | MOLT-4 > 100 µM | OVCAR-3 > 100 µM

O=C(O)CCC(N/C=C1/N=C(c2ccccc2)OC1=O)C(=O)O (stereo not drawn)
inactive: UACC-257 > 100 µM | ACHN > 100 µM | HCT-116 > 100 µM | CCRF-CEM > 100 µM | OVCAR-8 > 100 µM | TK-10 > 100 µM | HT-29 > 100 µM | NCI-H460 > 100 µM | NCI-H23 > 100 µM | SK-MEL-28 > 100 µM | SW-620 > 100 µM | MOLT-4 > 100 µM | A498 > 100 µM | OVCAR-3 > 100 µM

CC(=O)c1sc(-c2nc(C)c(C(=O)/C=C\c3ccc(/C=C\C(=O)c4sc(-c5nc(C)c(C(C)=O)s5)nc4C)cc3)s2)nc1C
inactive: UACC-257 > 100 µM | ACHN > 100 µM | HCT-116 > 100 µM | CCRF-CEM 80.7 µM | OVCAR-8 > 100 µM | LOX IMVI > 100 µM | TK-10 > 100 µM | HT-29 > 100 µM | NCI-H460 > 100 µM | NCI-H23 > 100 µM | SK-MEL-28 > 100 µM | SW-620 > 100 µM | MOLT-4 > 100 µM | OVCAR-3 > 100 µM

Cn1c(N)nc(=O)c2c1N(C1OC(CO)C(O)C1O)CN2Cc1ccccc1 (stereo not drawn)
inactive: UACC-257 > 100 µM | ACHN > 100 µM | HCT-116 > 100 µM | OVCAR-8 > 100 µM | TK-10 > 100 µM | HT-29 > 100 µM | NCI-H460 > 100 µM | NCI-H23 > 100 µM | SW-620 > 100 µM | MOLT-4 > 100 µM | A498 > 100 µM | OVCAR-3 > 100 µM

COC(=O)C1(C)CCc2c(OC)ccc(OC)c2C1=O (stereo not drawn)
inactive: UACC-257 > 100 µM | ACHN > 100 µM | HCT-116 > 100 µM | CCRF-CEM > 100 µM | OVCAR-8 > 100 µM | LOX IMVI > 100 µM | TK-10 > 100 µM | NCI-H23 > 100 µM | SK-MEL-28 > 100 µM | SW-620 > 100 µM | MOLT-4 > 100 µM | OVCAR-3 > 100 µM

O=C1OC(c2ccccc2)=N/C1=C\c1cccc2ccccc12
inactive: UACC-257 > 100 µM | ACHN > 100 µM | HCT-116 > 100 µM | CCRF-CEM > 100 µM | OVCAR-8 > 100 µM | LOX IMVI > 100 µM | TK-10 > 100 µM | HT-29 > 100 µM | NCI-H460 > 100 µM | NCI-H23 > 100 µM | SK-MEL-28 > 100 µM | SW-620 > 100 µM | MOLT-4 > 100 µM | A498 > 100 µM | OVCAR-3 > 100 µM

C=CCn1c(=O)c(C(=O)NC(=O)OCC)cn(C2CCCCC2)c1=O
inactive: UACC-257 > 100 µM | ACHN > 100 µM | HCT-116 > 100 µM | CCRF-CEM > 100 µM | OVCAR-8 > 100 µM | LOX IMVI > 100 µM | TK-10 > 100 µM | HT-29 > 100 µM | NCI-H460 > 100 µM | NCI-H23 > 100 µM | SK-MEL-28 > 100 µM | SW-620 > 100 µM | MOLT-4 > 100 µM | A498 > 100 µM | OVCAR-3 > 100 µM

COC(=O)[C@@]12C(=O)CCC(=O)C1C1C(=CC2C)O[C@@H]2OC3(CCCCC3)O[C@H]12 (stereo partly drawn)
inactive: UACC-257 > 100 µM | ACHN > 55.1 µM | HCT-116 43.8 µM | CCRF-CEM 29.9 µM | OVCAR-8 42.2 µM | LOX IMVI > 72.1 µM | TK-10 > 100 µM | HT-29 47.6 µM | NCI-H460 > 100 µM | NCI-H23 > 72.4 µM | SK-MEL-28 97.3 µM | SW-620 48.1 µM | MOLT-4 27.4 µM | A498 > 100 µM | OVCAR-3 34.8 µM

O=C1c2ccccc2C(=O)N1/N=C\c1ccc(Br)cc1
inactive: UACC-257 > 10 µM | ACHN > 10 µM | HCT-116 > 10 µM | CCRF-CEM > 10 µM | OVCAR-8 > 10 µM | LOX IMVI > 10 µM | TK-10 > 10 µM | HT-29 > 10 µM | NCI-H460 > 10 µM | NCI-H23 > 10 µM | SK-MEL-28 > 10 µM | SW-620 > 10 µM | MOLT-4 > 10 µM | A498 > 10 µM | OVCAR-3 > 10 µM

O=C1C[C@@H]2[C@@H](CCC23CC3)N1
inactive: UACC-257 > 100 µM | HCT-116 > 100 µM | CCRF-CEM > 100 µM | OVCAR-8 > 100 µM | LOX IMVI > 100 µM | TK-10 > 100 µM | HT-29 > 100 µM | NCI-H460 > 100 µM | NCI-H23 > 100 µM | SK-MEL-28 > 100 µM | SW-620 > 100 µM | MOLT-4 > 10 µM | A498 > 100 µM | OVCAR-3 > 100 µM

COc1cccc2c1N[S@](=O)S2
inactive: UACC-257 > 100 µM | ACHN > 100 µM | HCT-116 > 100 µM | CCRF-CEM 36.7 µM | LOX IMVI 50.8 µM | TK-10 > 100 µM | HT-29 > 100 µM | NCI-H23 > 100 µM | SK-MEL-28 > 100 µM | SW-620 > 100 µM | MOLT-4 42.1 µM | OVCAR-3 > 100 µM

CCCCCCCCCCC(=O)CC(=O)c1c(O)cccc1O
inactive: UACC-257 31.2 µM | ACHN 30 µM | HCT-116 19.5 µM | OVCAR-8 35.7 µM | LOX IMVI 18.7 µM | TK-10 46.2 µM | HT-29 30.7 µM | NCI-H460 34.7 µM | NCI-H23 26.9 µM | SK-MEL-28 53.7 µM | SW-620 34.2 µM | MOLT-4 20.4 µM | A498 30.9 µM | OVCAR-3 24.2 µM

CSC(=S)c1ccc(C(=S)SC)cc1
inactive: UACC-257 > 100 µM | HCT-116 > 100 µM | OVCAR-8 > 100 µM | LOX IMVI > 100 µM | TK-10 > 100 µM | HT-29 > 100 µM | NCI-H460 > 100 µM | NCI-H23 > 100 µM | SW-620 > 100 µM | MOLT-4 > 100 µM | A498 > 100 µM | OVCAR-3 > 100 µM

Cc1ccccc1SC(/C=C/NNC1=NN=C(c2ccccc2)C(c2ccccc2)N1)c1ccccc1 (stereo not drawn)
inactive: UACC-257 18.6 µM | ACHN 15.4 µM | CCRF-CEM 27.3 µM | OVCAR-8 13.7 µM | LOX IMVI 33.8 µM | TK-10 17.8 µM | HT-29 29.8 µM | NCI-H460 34.9 µM | NCI-H23 17.5 µM | SK-MEL-28 15.7 µM | SW-620 27.7 µM | MOLT-4 41.7 µM | A498 23.7 µM | OVCAR-3 13.7 µM
